ChEMBL document CHEMBL5291721, “A preclinical secondary pharmacology resource illuminates target-adverse drug reaction associations of marketed drugs” (Nat Commun, 2023)

Columns and labels:
[1] = target: T1, Alpha-1A adrenergic receptor (Homo sapiens, UniProt P35348)
T1 sequence (P35348 whole entry): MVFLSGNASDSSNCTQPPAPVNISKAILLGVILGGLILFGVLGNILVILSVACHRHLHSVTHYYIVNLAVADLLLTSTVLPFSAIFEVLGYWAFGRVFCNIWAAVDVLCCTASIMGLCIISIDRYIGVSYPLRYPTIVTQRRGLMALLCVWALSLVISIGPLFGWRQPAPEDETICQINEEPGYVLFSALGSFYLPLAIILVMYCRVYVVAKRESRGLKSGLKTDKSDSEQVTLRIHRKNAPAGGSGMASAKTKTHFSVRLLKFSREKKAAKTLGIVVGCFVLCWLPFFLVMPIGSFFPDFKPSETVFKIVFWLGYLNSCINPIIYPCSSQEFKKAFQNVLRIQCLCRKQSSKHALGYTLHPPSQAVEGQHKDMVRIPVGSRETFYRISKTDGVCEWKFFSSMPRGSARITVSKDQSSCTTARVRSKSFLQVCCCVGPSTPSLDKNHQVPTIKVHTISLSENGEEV

[2] = target: T2, 5-hydroxytryptamine receptor 1A (Homo sapiens, UniProt P08908)
T2 sequence (P08908 whole entry): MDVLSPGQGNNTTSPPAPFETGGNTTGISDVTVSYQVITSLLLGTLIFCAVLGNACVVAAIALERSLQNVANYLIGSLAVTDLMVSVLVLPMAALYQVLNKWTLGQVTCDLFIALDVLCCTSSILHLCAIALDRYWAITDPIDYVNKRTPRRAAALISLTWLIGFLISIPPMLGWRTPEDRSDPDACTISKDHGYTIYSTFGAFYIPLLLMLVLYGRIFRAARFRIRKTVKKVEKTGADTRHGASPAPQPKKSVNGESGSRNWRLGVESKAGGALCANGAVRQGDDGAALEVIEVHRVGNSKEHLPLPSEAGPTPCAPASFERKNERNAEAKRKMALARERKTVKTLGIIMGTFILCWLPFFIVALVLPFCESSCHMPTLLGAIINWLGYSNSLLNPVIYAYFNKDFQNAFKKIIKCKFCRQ

[3] = target: T3, Alpha-2A adrenergic receptor (Homo sapiens, UniProt P08913)
T3 sequence (P08913 whole entry): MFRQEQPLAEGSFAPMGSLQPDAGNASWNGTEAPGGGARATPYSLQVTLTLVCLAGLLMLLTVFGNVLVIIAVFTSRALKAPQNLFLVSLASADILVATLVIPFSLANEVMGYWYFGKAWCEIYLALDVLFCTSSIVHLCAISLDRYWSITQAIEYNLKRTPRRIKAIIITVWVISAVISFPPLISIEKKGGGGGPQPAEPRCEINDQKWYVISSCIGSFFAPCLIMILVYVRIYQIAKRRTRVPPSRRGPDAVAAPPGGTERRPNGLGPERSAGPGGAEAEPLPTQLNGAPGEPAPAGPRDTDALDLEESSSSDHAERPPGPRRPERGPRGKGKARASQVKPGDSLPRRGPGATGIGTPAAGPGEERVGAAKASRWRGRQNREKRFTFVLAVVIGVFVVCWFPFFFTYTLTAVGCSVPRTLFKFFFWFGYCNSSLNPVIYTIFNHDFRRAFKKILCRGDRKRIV

[4] = target: Beta-3 adrenergic receptor (Homo sapiens, UniProt P13945)
D(4) dopamine receptor = target: T4, D(4) dopamine receptor (Homo sapiens, UniProt P21917)
T4 sequence (P21917 whole entry): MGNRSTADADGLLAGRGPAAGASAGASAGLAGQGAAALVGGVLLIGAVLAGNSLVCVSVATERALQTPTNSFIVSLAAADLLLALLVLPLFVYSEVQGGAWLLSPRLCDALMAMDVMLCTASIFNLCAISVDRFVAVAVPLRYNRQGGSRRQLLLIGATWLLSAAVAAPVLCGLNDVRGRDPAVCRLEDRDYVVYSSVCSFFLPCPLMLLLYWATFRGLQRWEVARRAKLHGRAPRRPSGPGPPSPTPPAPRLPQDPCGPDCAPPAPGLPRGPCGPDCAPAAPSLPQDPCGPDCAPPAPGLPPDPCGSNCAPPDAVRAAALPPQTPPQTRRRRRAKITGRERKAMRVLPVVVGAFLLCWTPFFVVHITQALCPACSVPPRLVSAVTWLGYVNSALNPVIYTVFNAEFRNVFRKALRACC

[5] = target: Neurotensin receptor type 1 (Homo sapiens, UniProt P30989)
[6] = target: T5, Corticotropin-releasing factor receptor 2 (Homo sapiens, UniProt Q13324)
T5 sequence (Q13324 whole entry): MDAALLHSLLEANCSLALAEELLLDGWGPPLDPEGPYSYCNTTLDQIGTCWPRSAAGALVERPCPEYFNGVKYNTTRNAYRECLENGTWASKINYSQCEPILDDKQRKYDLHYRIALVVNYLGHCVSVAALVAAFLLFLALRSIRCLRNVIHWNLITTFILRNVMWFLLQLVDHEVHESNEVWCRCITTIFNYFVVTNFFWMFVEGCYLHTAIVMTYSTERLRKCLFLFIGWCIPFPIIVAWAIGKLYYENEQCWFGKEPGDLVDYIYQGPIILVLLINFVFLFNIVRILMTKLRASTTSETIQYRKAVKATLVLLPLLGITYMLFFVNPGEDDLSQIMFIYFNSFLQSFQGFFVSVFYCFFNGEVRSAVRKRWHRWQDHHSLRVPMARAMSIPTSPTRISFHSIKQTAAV

[7] = target: Hydroxycarboxylic acid receptor 2 (Homo sapiens, UniProt Q8TDS4)
D(1A) dopamine receptor = D(1A) dopamine receptor (Homo sapiens, UniProt P21728); type: functional, cell-based
Estrogen receptor beta = Estrogen receptor beta (Homo sapiens, UniProt Q92731)
Thromboxane A2 receptor [8] = target: T6, Thromboxane A2 receptor (Homo sapiens, UniProt P21731); type: functional, cell-based
T6 sequence (P21731 whole entry): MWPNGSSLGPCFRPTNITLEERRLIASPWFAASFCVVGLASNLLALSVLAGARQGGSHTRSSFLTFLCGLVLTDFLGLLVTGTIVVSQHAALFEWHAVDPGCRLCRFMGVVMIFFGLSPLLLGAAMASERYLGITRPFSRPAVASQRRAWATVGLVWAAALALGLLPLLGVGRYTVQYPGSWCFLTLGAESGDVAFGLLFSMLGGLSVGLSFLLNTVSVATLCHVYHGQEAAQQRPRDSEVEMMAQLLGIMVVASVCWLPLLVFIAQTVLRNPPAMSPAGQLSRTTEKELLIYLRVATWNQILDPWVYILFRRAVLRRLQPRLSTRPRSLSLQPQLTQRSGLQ

Thromboxane A2 receptor [9] = target: T6, Thromboxane A2 receptor; type: functional
Also: assay procedure not described here.

Neurotensin receptor type 1, sequence (P30989 whole entry): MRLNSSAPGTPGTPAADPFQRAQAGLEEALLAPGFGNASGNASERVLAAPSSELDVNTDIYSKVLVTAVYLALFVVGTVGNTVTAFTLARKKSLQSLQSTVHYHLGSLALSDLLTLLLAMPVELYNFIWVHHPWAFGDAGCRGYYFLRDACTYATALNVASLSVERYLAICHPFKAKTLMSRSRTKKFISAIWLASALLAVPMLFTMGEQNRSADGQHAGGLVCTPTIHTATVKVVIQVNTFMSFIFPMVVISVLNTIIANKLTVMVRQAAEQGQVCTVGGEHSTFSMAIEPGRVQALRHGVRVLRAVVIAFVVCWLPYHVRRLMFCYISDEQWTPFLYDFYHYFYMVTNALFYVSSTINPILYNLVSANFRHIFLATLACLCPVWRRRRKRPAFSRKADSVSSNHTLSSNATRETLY
Hydroxycarboxylic acid receptor 2, sequence (Q8TDS4 whole entry): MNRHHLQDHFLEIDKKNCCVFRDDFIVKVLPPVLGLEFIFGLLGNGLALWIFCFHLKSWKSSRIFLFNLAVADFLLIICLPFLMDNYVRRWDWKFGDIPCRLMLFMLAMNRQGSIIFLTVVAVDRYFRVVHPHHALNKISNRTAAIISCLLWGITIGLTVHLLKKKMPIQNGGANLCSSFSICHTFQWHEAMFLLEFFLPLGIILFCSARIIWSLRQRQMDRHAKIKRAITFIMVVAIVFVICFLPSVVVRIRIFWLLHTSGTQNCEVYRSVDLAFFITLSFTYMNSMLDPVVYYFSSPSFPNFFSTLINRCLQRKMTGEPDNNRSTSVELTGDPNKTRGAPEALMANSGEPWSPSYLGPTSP
Beta-3 adrenergic receptor, sequence (P13945 whole entry): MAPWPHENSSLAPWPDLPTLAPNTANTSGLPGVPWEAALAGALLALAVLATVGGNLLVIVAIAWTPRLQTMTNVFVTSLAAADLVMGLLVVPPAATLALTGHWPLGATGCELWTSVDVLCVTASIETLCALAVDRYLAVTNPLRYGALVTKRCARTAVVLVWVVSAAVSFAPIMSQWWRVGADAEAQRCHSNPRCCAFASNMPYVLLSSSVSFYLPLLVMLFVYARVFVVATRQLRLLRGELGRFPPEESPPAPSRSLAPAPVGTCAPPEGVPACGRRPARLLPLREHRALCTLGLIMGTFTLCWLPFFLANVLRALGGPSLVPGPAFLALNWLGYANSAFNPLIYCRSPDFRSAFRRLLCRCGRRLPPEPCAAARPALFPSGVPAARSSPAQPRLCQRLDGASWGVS
Estrogen receptor beta, sequence (Q92731 whole entry): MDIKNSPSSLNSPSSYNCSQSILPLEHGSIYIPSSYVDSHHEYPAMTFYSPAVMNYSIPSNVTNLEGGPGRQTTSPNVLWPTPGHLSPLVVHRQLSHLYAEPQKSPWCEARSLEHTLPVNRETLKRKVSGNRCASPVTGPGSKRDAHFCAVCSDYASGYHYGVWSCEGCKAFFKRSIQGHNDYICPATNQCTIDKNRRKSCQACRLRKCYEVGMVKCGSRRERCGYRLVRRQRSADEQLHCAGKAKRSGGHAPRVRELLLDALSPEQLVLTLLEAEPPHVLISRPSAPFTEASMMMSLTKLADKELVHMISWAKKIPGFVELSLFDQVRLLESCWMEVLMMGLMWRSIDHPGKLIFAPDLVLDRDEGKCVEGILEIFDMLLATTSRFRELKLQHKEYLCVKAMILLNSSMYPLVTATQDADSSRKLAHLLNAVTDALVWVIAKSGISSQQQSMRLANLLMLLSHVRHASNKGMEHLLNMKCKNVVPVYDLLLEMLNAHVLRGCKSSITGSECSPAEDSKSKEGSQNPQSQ
D(1A) dopamine receptor, sequence (P21728 whole entry): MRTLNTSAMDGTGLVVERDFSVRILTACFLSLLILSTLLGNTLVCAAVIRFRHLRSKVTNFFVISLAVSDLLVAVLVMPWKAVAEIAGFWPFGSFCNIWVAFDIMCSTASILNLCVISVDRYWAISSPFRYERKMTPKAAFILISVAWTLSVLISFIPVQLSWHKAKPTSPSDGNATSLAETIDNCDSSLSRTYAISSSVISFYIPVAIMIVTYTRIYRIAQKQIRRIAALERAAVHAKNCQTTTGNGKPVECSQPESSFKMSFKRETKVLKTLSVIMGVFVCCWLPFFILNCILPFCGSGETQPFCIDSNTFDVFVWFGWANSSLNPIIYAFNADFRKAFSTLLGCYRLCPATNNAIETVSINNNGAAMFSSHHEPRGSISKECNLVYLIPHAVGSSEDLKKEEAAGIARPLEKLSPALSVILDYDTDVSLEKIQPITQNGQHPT

C#CCN(C)Cc1ccccc1 [PARGYLINE]
AC50 [1]: > 30 µM

CCCCCCO[C@@H](C)c1cccc(-c2csc(NC(=O)c3cc(Cl)c(/C=C(\C)C(=O)O)c(Cl)c3)n2)c1OC [LUSUTROMBOPAG]
AC50 [1]: > 30 µM

CC(=O)SCC(Cc1ccccc1)C(=O)NCC(=O)OCc1ccccc1 (stereo unspecified) [RACECADOTRIL]
AC50 [2]: > 10 µM
AC50 [3]: > 10 µM
AC50 [4]: > 30 µM

OCCOCCN1CCN(C(c2ccccc2)c2ccc(Cl)cc2)CC1 (stereo unspecified) [HYDROXYZINE]
AC50 (D(4) dopamine receptor): 8.54 µM
AC50 [5]: > 30 µM
AC50 [6]: > 30 µM
AC50 [2]: > 10 µM
AC50 [3]: 12.8 µM
AC50 [4]: > 30 µM
AC50 [7]: > 10 µM

CN1CC2c3ccccc3Oc3ccc(Cl)cc3C2C1 (stereo unspecified) [ASENAPINE]
AC50 (D(1A) dopamine receptor): 0.244 µM

COc1cc2c(cc1OC)C1CC(=O)C(CC(C)C)CN1CC2 (stereo unspecified) [TETRABENAZINE]
AC50 (D(1A) dopamine receptor): > 30 µM

CCOC(=O)[C@H](CCc1ccccc1)N[C@@H](C)C(=O)N1Cc2ccccc2C[C@H]1C(=O)O
AC50 (D(4) dopamine receptor): > 10 µM
AC50 [5]: > 30 µM
AC50 (Estrogen receptor beta): > 30 µM
AC50 [6]: > 30 µM
AC50 [2]: > 10 µM
AC50 [3]: > 10 µM
AC50 [4]: > 30 µM

Cc1c(C)c2c(c(C)c1O)CCC(C)(COc1ccc(CC3SC(=O)NC3=O)cc1)O2 (stereo unspecified) [TROGLITAZONE]
AC50 [5]: > 30 µM
AC50 (Estrogen receptor beta): > 30 µM
AC50 [6]: > 30 µM
AC50 [4]: > 30 µM

C[C@H](CCC(=O)O)[C@H]1CC[C@H]2[C@@H]3[C@H](O)C[C@@H]4C[C@H](O)CC[C@]4(C)[C@H]3CC[C@]12C [CHENODIOL]
AC50 (D(1A) dopamine receptor): > 30 µM

c1cnc2cc3c(cc2n1)[C@@H]1CNC[C@H]3C1 [VARENICLINE]
AC50 (Thromboxane A2 receptor [8]): > 30 µM
AC50 (Thromboxane A2 receptor [9]): > 30 µM
AC50 (D(1A) dopamine receptor): > 30 µM

CC(=O)Oc1ccccc1C(=O)O [ASPIRIN]
AC50 (D(4) dopamine receptor): > 10 µM
AC50 (Thromboxane A2 receptor [8]): > 30 µM
AC50 (Thromboxane A2 receptor [9]): > 30 µM
AC50 [5]: > 30 µM
AC50 (Estrogen receptor beta): > 30 µM
AC50 [6]: > 30 µM
AC50 [2]: > 10 µM
AC50 [3]: > 10 µM
AC50 [4]: > 30 µM

C[C@H](Nc1ncnc2[nH]cnc12)c1cc2cccc(Cl)c2c(=O)n1-c1ccccc1 [DUVELISIB]
AC50 (D(1A) dopamine receptor): > 30 µM
AC50 [1]: > 30 µM

CN(C)CCCC1(c2ccc(F)cc2)OCc2cc(C#N)ccc21 (stereo unspecified) [CITALOPRAM]
AC50 (D(4) dopamine receptor): > 10 µM
AC50 [5]: > 30 µM
AC50 (Estrogen receptor beta): > 30 µM
AC50 [6]: > 30 µM
AC50 [2]: > 10 µM
AC50 [3]: > 10 µM
AC50 [4]: > 30 µM
AC50 [7]: > 10 µM

C[C@H](CS)C(=O)N1CCC[C@H]1C(=O)O [CAPTOPRIL]
AC50 [2]: > 10 µM
AC50 [3]: > 10 µM

O=C(O)COC(=O)Cc1ccccc1Nc1c(Cl)cccc1Cl [ACECLOFENAC]
AC50 [2]: > 10 µM

Nc1c2c(nc3ccccc13)CCCC2O (stereo unspecified) [VELNACRINE]
AC50 (Thromboxane A2 receptor [8]): > 30 µM
AC50 (Thromboxane A2 receptor [9]): > 30 µM
AC50 (D(1A) dopamine receptor): > 30 µM

CN(C)CCC=C1c2ccccc2CCc2ccccc21 [AMITRIPTYLINE]
AC50 (D(4) dopamine receptor): 0.819 µM
AC50 (Thromboxane A2 receptor [8]): > 30 µM
AC50 (Thromboxane A2 receptor [9]): > 30 µM
AC50 [5]: > 30 µM
AC50 (Estrogen receptor beta): > 30 µM
AC50 [6]: > 30 µM
AC50 [2]: 3.77 µM
AC50 [3]: 2.92 µM
AC50 [4]: > 30 µM
AC50 [7]: > 10 µM

CCC[C@@]1(CCc2ccccc2)CC(O)=C([C@H](CC)c2cccc(NS(=O)(=O)c3ccc(C(F)(F)F)cn3)c2)C(=O)O1
AC50 (D(1A) dopamine receptor): 14 µM

Nc1nnc(-c2cccc(Cl)c2Cl)c(N)n1 [LAMOTRIGINE]
AC50 (D(4) dopamine receptor): > 10 µM
AC50 [5]: > 30 µM
AC50 (Estrogen receptor beta): > 30 µM
AC50 [6]: > 30 µM
AC50 [2]: > 10 µM
AC50 [3]: > 10 µM
AC50 [4]: > 30 µM
AC50 [7]: > 10 µM

CO[C@@H]1[C@@H](OC(N)=O)[C@@H](O)[C@H](Oc2ccc3c(O)c(NC(=O)c4ccc(O)c(CC=C(C)C)c4)c(=O)oc3c2C)OC1(C)C [NOVOBIOCIN]
AC50 (Thromboxane A2 receptor [8]): > 30 µM
AC50 (Thromboxane A2 receptor [9]): > 30 µM
AC50 (D(1A) dopamine receptor): > 30 µM

CC#CC(=O)N1CCC[C@H]1c1nc(-c2ccc(C(=O)Nc3ccccn3)cc2)c2c(N)nccn12 [ACALABRUTINIB]
AC50 [1]: > 30 µM

C[C@@H](O)[C@H]1C(=O)N2C(C(=O)O)=C(SCCN=CN)C[C@H]12 [IMIPENEM ANHYDROUS]
AC50 (Thromboxane A2 receptor [8]): > 300 µM
AC50 (Thromboxane A2 receptor [9]): > 300 µM
AC50 (D(1A) dopamine receptor): > 300 µM

O=C(Cc1cccs1)N[C@@H]1C(=O)N2C(C(=O)[O-])=C(C[n+]3ccccc3)CS[C@H]12 [CEPHALORIDINE]
AC50 [1]: > 30 µM

NCC1(CC(=O)O)CCCCC1 [GABAPENTIN]
AC50 (D(4) dopamine receptor): > 10 µM
AC50 (Thromboxane A2 receptor [8]): > 30 µM
AC50 (Thromboxane A2 receptor [9]): > 30 µM
AC50 (D(1A) dopamine receptor): > 30 µM
AC50 [5]: > 30 µM
AC50 [6]: > 30 µM
AC50 [2]: > 10 µM
AC50 [3]: > 10 µM
AC50 [4]: > 30 µM

C[C@]12CCC(=O)C=C1CC[C@H]1[C@@H]3CC[C@](O)(C(=O)CO)[C@@]3(C)C[C@H](O)[C@@]12F [FLUDROCORTISONE]
AC50 [5]: > 30 µM
AC50 (Estrogen receptor beta): > 30 µM
AC50 [6]: > 30 µM
AC50 [2]: > 10 µM
AC50 [3]: > 10 µM
AC50 [4]: > 30 µM

O=C(O)[C@@H](S)[C@@H](S)C(=O)O
AC50 [1]: > 30 µM

O=C1[C@@H]2[C@H]3CC[C@H](C3)[C@@H]2C(=O)N1C[C@@H]1CCCC[C@H]1CN1CCN(c2nsc3ccccc23)CC1 [LURASIDONE]
AC50 (Thromboxane A2 receptor [9]): > 30 µM

Cn1cnc2c(F)c(Nc3ccc(Br)cc3F)c(C(=O)NOCCO)cc21 [BINIMETINIB]
AC50 (Thromboxane A2 receptor [8]): > 30 µM
AC50 (Thromboxane A2 receptor [9]): > 30 µM
AC50 (D(1A) dopamine receptor): > 30 µM
